Series [1] is classed as in vitro ADME. To be noted: Table 10. The procedure:
Test compound stock (10 mM in DMSO, 3 μL) was mixed with citrate phosphate buffered saline (597 μL) to make diluted test compound. Diluted test compound (150 μL) was transferred to a UV plate (pION Inc., Woburn, Mass.) and the UV spectrum (250 nm-500 nm) was read as the reference plate. Each well of the donor plate in a PAMPA sandwich plate (pION Inc., Woburn, Mass.) contained a filter that was painted on one side with 4 μL GIT lipid (pION Inc., Woburn, Mass.) to form a membrane. Each well in the acceptor plate in a PAMPA sandwich, preloaded with magnetic stir bars, was filled with acceptor solution buffer (200 pION Inc., Woburn, Mass.). The donor plate was filled with diluted test compound (180 The PAMPA sandwich was assembled by placing the donor plate over the acceptor plate. The combined PAMPA plate was placed on a pIon Gut-Box™, a stirring apparatus that allows equilibrium to be reached quicker. Aqueous Boundary Layer of the pIon Gut-Box™ was set to 40 μm and the compounds stirred for 30 minutes. The UV spectrum (250 nm-500 nm) of the donor and the acceptor were read. The permeability coefficient was calculated using PAMPA evolution 96 command software (pION Inc., Woburn, Mass.) based on the whole spectrum measured from the reference plate, the donor plate, and the acceptor plate. All compounds were tested in triplicates.

Another series is described as follows: physchem. Particulars: aqueous buffer, kinetic from dmso stock.
Another series concerns the target DCN1-UBC12 interaction (Homo sapiens (Human), UniProt Q96GG9). Description: biochemical. The class given is binding. To be noted: for inhibition of the DCN1-UBC12NAc interaction: TR-FRET assay.
In another series the test system is HCC95 cells. Kind of series: Soft agar anchorage independent growth assay. The class given is cell-based. To be noted: 10 μM.
Another series deals with HCC95 cancer cells. Description: Cullin neddylation in cancer cells (cell lysis and western blot). The class given is cell-based. (Immunoblotting shows a protein as a band on a membrane.)
For series [2], the target named is Dcn1P-mediated co-E3 activity (Homo sapiens (Human), UniProt Q96GG9). Description: Pulse-chase neddylation assay (NEDD8 transfer from UBC12 to CUL2CTD). The class given is biochemical. Particulars: for inhibition of labeled NEDD8 transfer from UBC12 to CUL2CTD-RBX2: pulse-chase neddylation assay.
Chain of Dcn1P-mediated co-E3 activity (Q96GG9 whole entry, looked up): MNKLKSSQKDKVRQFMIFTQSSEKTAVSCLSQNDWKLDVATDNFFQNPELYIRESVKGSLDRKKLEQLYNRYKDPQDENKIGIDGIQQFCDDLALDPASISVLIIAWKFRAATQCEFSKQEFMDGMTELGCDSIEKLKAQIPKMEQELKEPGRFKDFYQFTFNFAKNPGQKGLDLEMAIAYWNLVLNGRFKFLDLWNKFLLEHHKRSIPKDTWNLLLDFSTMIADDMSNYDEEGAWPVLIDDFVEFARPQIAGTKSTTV
Chain of Dcn1P-mediated co-E3 activity (Q13617 whole entry partner, looked up): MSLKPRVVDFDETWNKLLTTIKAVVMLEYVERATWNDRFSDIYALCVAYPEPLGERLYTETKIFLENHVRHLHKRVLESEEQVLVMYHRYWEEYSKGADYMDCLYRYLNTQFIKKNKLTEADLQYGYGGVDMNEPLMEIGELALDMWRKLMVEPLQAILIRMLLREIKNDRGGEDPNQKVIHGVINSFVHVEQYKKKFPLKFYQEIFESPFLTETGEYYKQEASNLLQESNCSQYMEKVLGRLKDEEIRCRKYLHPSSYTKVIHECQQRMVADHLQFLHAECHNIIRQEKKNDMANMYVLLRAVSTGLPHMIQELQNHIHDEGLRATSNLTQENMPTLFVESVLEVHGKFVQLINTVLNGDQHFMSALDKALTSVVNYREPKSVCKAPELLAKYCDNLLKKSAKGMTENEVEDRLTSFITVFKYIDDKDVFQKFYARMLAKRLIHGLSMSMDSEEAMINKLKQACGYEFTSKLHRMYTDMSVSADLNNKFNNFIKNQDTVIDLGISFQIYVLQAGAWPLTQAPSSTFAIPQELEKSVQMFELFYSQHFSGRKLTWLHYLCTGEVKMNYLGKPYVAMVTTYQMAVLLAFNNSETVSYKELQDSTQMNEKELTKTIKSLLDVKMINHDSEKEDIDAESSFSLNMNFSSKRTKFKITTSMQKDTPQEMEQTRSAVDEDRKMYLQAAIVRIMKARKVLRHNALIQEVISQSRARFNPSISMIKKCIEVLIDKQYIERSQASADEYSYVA
Chain of Dcn1P-mediated co-E3 activity (Q9UBF6 whole entry partner, looked up): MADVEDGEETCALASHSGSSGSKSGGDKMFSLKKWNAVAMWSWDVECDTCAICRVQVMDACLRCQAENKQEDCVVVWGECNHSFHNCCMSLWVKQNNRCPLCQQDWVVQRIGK
Experimental: Compound inhibition of Dcn1^P-mediated co-E3 activity was monitored using pulse-chase assays to exclusively monitor effects of Nedd8 transfer to Cul2 without sensing earlier steps in the reaction. […] Load reactions were quenched by the addition of EDTA to 50 mM and incubated on ice for 5 minutes. Chase reactions involved dilution of the UBC12˜[^FAM]-Nedd8 thioester conjugate to 40 nM in 50 mM Tris, 50 mM NaCl, 50 mM EDTA, 0.5 mg/mL BSA, pH 6.8. […] Fluorescent gels were visualized by scanning on a Typhoon imager (GE).
In another series the test system is endosome maturation. Description: Endosome maturation (LAMP1 positive vesicles) imaging. It is filed as cell-based.
The subject of the next series is U-2 OS cells. Kind of series: Electron microscopy of compound treated cells. It is filed as cell-based.
Where [3] appears, read: Table 10, R101 series, read-out: IC50 (μM) (TR-FRET).
Where [4] appears, read: Table 6, commercial compounds, read-out: TR-FRET IC50.
[5] abbreviates: Table 7, commercial compounds, read-out: TR-FRET IC50.

In brackets after ≈: the same amount, converted by molar mass. Entries after “also recorded” stand apart in the source; their conditions may differ. Like-named read-outs stand apart in the source and are kept apart here.

Chain of DCN1-UBC12 interaction (Q96GG9 60-248 limits assumed): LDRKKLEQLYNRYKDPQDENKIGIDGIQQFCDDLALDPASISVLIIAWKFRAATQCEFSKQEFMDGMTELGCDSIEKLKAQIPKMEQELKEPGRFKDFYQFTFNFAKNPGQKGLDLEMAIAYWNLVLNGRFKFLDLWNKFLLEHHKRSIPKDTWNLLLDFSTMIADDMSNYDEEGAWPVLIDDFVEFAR
Experimental for HCC95 cancer cells: Cell pellets harvested from a 6 well dish were resuspended in 30-40 μL of lysis buffer (50 mM Tris, 150 mM NaCl, 0.5% NP-40, 0.1% SDS, 6.5 M Urea, 2 mM 1,10-orthophenanthroline, 1× Halt Protease and Phosphatase inhibitor cocktail (ThermoFisher), 0.25 kU Universal Nuclease (ThermoFisher), pH 7.5). Cell pellet suspensions were incubated on ice for 25 minutes with occasional mixing by pipetting up and down. Lysates were cleared by centrifugation at 13 K rpm for 20 minutes and the supernatant was removed as total cell lysate sample. Protein concentration of the cell lysate was determined by BCA assay (Pierce) using BSA as a control. Cell lysates were diluted into 2×SDS-PAGE sample buffer such that 25 μg of total protein was loaded per well. […] Primary antibodies were prepared in blocking buffer and incubated with membranes overnight at 4° C. with rocking. Membranes were extensively washed in 1×TBS, 0.1% Tween-20. Secondary antibodies were prepared in blocking buffer according to the manufactures recommendations and incubated with membranes for 1 hour at room temperature. After extensive washing the membranes were developed with SuperSignal West Pico Chemiluminescent substrate (ThermoFisher) and developed by film exposure (HyBlot CL, Denville scientific).
Experimental for physchem: Solubility assays were carried out on a Biomek FX lab automation workstation (Beckman Coulter, Inc., Fullerton, Calif.) using μSOL Evolution software (pION Inc., Woburn, Mass.). […] Compound stock (10 mM in DMSO, 10 μL) was added to 1-propanol (190 μL) to make a reference stock plate. […] Test compound stock (10 mM, 6 μL) was added to buffer (594 μL) in a 96-well storage plate and mixed. […] The suspension was then filtered through a 96-well filter plate (pION Inc., Woburn, Mass.). […] Calculation was carried out by μSOL Evolution software based on the AUC (area under curve) of UV spectrum of the sample plate and the reference plate. All compounds were tested in triplicate.

As a reminder, the kinetic solubility is solubility judged after dilution from a stock solution rather than from solid. For the molecule `CCOc1cc(CN2CCC(N(Cc3ccccc3)C(=O)Nc3cccc(C(F)(F)F)c3)CC2)cc(Cl)c1O` [compound 25], the “Pampa (×10^−6 cm/s)” value in series [1] is 110 ± 190 ×10^−6 cm/s. This molecule also returned a solubility (kinetic) in the series “physchem” of 0.4 ± 0.1 µM (≈ 0.225 µg/mL).
The term IC50 denotes the concentration at which inhibition is half-maximal. In the case of `O=C(Nc1cccc(C(F)(F)F)c1)N(Cc1ccccc1)C1CCN(Cc2cccnc2)CC1` [compound 23], the IC50 at DCN1-UBC12 interaction (setting [3]) stood at 12 µM. Besides, the “Pampa (×10^−6 cm/s)” value in series [1] was >2200 ×10^−6 cm/s. The molecule further returned a solubility (kinetic) in “physchem” of 30 ± 1.1 µM (≈ 14.1 µg/mL).
Regarding `C=CC(=O)Nc1cccc(CN(C(=O)Nc2cccc(C(F)(F)F)c2)C2CCN(C(C)CCC)CC2)c1` (stereo not shown) [A18], the anchorage independent growth entry in the series on HCC95 cells is given as “inhibit the anchorage independent growth of HCC95 cells”. Moreover, the “levels of neddylated Cullins / cullin neddylation” value in the series with HCC95 cancer cells is “reduce the levels of neddylated Cullins; also recorded: selectively inhibit cullin neddylation”. For the same molecule, on DCN1-UBC12 interaction (read-out: TR-FRET IC50), the IC50 was found to be 0.111 µM.
Take `O=C(Nc1cccc(C(F)(F)F)c1)N(Cc1ccccc1)C1CCN(Cc2ccc3c(c2)OCCO3)CC1` [compound 27]: the IC50 at DCN1-UBC12 interaction (setting [3]) is 7.3 µM. Further, the “Pampa (×10^−6 cm/s)” value in series [1] was >2200 ×10^−6 cm/s. Also, the kinetic solubility in the series “physchem” came to 1 ± 1.3 µM (≈ 0.526 µg/mL).
For `O=C(Nc1cccc(C(F)(F)F)c1)N(Cc1ccccc1)C1CCN(Cc2ccc(F)cc2)CC1` [compound 24], the IC50 on DCN1-UBC12 interaction (setting [3]) is 9.2 µM. For the same molecule, the “Pampa (×10^−6 cm/s)” value in series [1] was >2200 ×10^−6 cm/s. For the same molecule, in “physchem”, the solubility (kinetic) was 0.9 ± 0.1 µM (≈ 0.437 µg/mL).
As for `Cc1cccc(C(=O)NC2C(=O)Nc3c(c(C)nn3-c3ccccc3)C2c2ccc(F)cc2)c1` (stereo not shown) [F1], the “inhibition of labeled NEDD8 transfer from UBC12 to CUL2CTD-RBX2” value (“inhibition of labeled NEDD8 transfer” for short) in series [2] is listed as “dose-dependent inhibition”.
`O=C(Nc1cccc(C(F)(F)F)c1)N(Cc1ccccc1)C1CCN(Cc2ccc3c(c2)OCO3)CC1` [compound 26]: the IC50 at DCN1-UBC12 interaction (setting [3]) came out at 7 µM. Moreover, the “Pampa (×10^−6 cm/s)” value in series [1] was >2200 ×10^−6 cm/s. Besides, the solubility (kinetic) in “physchem” was < 0.1 µM.
On to `CCCN1CCN(C(=O)c2cnn(-c3nccc(-c4cccs4)n3)c2C(C)C)CC1` [E1, (5-Isopropyl-1-(4-(Thiophen-2-yl)Pyrimidin-2-yl)-1H-Pyrazol-4-yl)(4-Propylpiperazin-1-yl)Methanone], for which, in series [2], the “inhibition of labeled NEDD8 transfer” value is reported as “dose-dependent inhibition”. Besides, the “inhibition of the DCN1-UBC12NAc interaction” value at DCN1-UBC12 interaction is given as “dose-dependent inhibition”. Besides, the IC50 at DCN1-UBC12 interaction (setting [4]) turned out to be 1.07 µM.
For the molecule `CCCCN1CCC(N(Cc2ccc3c(c2)OCO3)C(=O)Nc2cc(F)cc(C(F)(F)F)c2)CC1` [A83], the IC50 on DCN1-UBC12 interaction (read-out: TR-FRET IC50) was found to be 0.901 µM. Further, in the series with endosome maturation (3 μM on cells), the “effect on endosome maturation” value is on record as “affect endosome maturation”.
Take `CCCC(C)N1CCC(N(Cc2ccccc2)C(=O)Nc2cccc(C(F)(F)F)c2)CC1` (stereo not shown) [A15, 1-Benzyl-1-(1-(Pentan-2-yl)Piperidin-4-yl)-3-(3-(Trifluoromethyl)Phenyl)Urea]: the “vacuolar structures by electron microscopy” value with U-2 OS cells was “presence of large vacuolar structures”. Also, the “effect on endosome maturation” value with endosome maturation (10 μM on cells) is “affect endosome maturation”.
`O=C(Nc1cccc(C(F)(F)F)c1)NC1CCN(Cc2ccccc2)CC1` [B7, 1-(1-Benzylpiperidin-4-yl)-3-(3-(Trifluoromethyl)Phenyl)Urea]: in series [2] (dependence on presence of DCN1), the “inhibition of DCN1 dependent neddylation” value is on record as “specifically inhibits DCN1 dependent nedylation”. The “inhibition of labeled NEDD8 transfer” value in series [2] is listed as “dose-dependent inhibition”. The “inhibition of the DCN1-UBC12NAc interaction” value against DCN1-UBC12 interaction is “dose-dependent inhibition”.
As to `C=CC(=O)NCc1cccc(CN(C(=O)Nc2cccc(C(F)(F)F)c2)C2CCN(C(C)CCC)CC2)c1` (stereo not shown) [A3], in the series on U-2 OS cells, the “vacuolar structures by electron microscopy” value is “presence of large vacuolar structures”. The IC50 at DCN1-UBC12 interaction (read-out: TR-FRET IC50) is 0.018 µM.
As for `CCCC(C)N1CCC(N(Cc2ccccc2)C(=O)Nc2cccc(F)c2)CC1` (stereo not shown) [A72], at DCN1-UBC12 interaction (read-out: TR-FRET IC50), the IC50 came to 0.621 µM.
As to `COc1cccc(C2c3c(C)nn(C)c3NC(=O)C2NC(=O)c2cccc(C)c2)c1` (stereo not shown) [F27], the concentration for half-maximal inhibition (IC50) at DCN1-UBC12 interaction (setting [5]) is > 67.6 µM.
Consider `CCCC(C)N1CCC(N(CCCNC(=O)CCl)C(=O)Nc2cccc(C(F)(F)F)c2)CC1` (stereo not shown) [drawing 836], for which the IC50 at DCN1-UBC12 interaction (read-out: TR-FRET IC50) was > 53 µM.
Still for that read-out and setting: the value for `Cc1cccc(NC(=O)NC2CCN(Cc3ccccc3)CC2)c1` [B57] was > 67.6 µM; that for `Cc1ccc(CN(C(=O)Nc2cccc(C(F)(F)F)c2)C2CCN(Cc3ccccc3)CC2)o1` [B1] was 2.73 µM; that for `CC1CN(Cc2ccccc2)CCC1N(C)C(=O)NC1C(=O)N(c2ccccc2)N(C)C1C` (stereo not shown) [B27] was > 28.1 µM.
On to `Cc1cc(NC(=O)NC2C(C)CN(Cc3ccccc3)CC2C)no1` (stereo not shown) [B121], for which the half-maximal inhibitory concentration (IC50) at DCN1-UBC12 interaction (read-out: TR-FRET IC50) was > 81.9 µM.
With `CCCC(C)N1CCC(N(Cc2ccccc2)C(=O)Nc2ccc(Cl)c(Cl)c2F)CC1` (stereo not shown) [A40], the IC50 on DCN1-UBC12 interaction (read-out: TR-FRET IC50) amounted to 0.227 µM.
For the molecule `CCCC(C)N1CCC(N(Cc2ccccc2)C(=O)Nc2ccc(-c3ccc(OC)cc3)cc2)CC1` (stereo not shown) [A164], the half-inhibitory concentration (IC50) on DCN1-UBC12 interaction (read-out: TR-FRET IC50) stood at 8.9 µM.
Same read-out and setting: the value for `CCCC(C)N1CCC(N(Cc2ccccc2)C(=O)Nc2ccc(OC(F)(F)F)cc2)CC1` (stereo not shown) [A32] was 0.191 µM.
Take `CC(C)N1CCN(C(=O)c2cnn(-c3nccc(-c4cccs4)n3)c2C2CC2)CC1` [E43]: the IC50 on DCN1-UBC12 interaction (setting [4]) is > 67.6 µM.
Turning to `CC(C1CCCCC1)N1CCC(N(Cc2ccccc2)C(=O)Nc2cc(F)cc(C(F)(F)F)c2)CC1` (stereo not shown) [A125], on DCN1-UBC12 interaction (read-out: TR-FRET IC50), the IC50 was 1.77 µM.
On the same count and under the same terms, the value for `CCCC(C)N1CCC(N(Cc2ccccc2)C(=O)Nc2c(F)cc(F)cc2F)CC1` (stereo not shown) [A272] was > 67.5 µM.
With `CCN(CC)C(=O)c1cnn(-c2nccc(-c3cccs3)n2)c1C` [E25], the IC50 on DCN1-UBC12 interaction (setting [4]) stood at 63 µM.
On to `C#CCCCN1CCC(N(Cc2ccccc2NC(=O)CCl)C(=O)Nc2ccc(Cl)c(Cl)c2)CC1` [A252], for which, at DCN1-UBC12 interaction (read-out: TR-FRET IC50), the IC50 is > 6.46 µM.
Regarding `CCCOc1ccc(C2c3c(C)nn(C)c3NC(=O)C2NC(=O)c2cccc(C)c2)cc1OC` (stereo not shown) [F22], the IC50 at DCN1-UBC12 interaction (setting [5]) is > 67.6 µM.

For the origin of these results see patent publication US11116757B2 (priority 2015, dated 2021).
